The term EC50 denotes the concentration needed to bring the measured effect to its halfway point.

The values below come from US11980609B2, “LPA receptor antagonists and uses thereof” (Gilead Sciences, Inc., priority 2021, dated 2024).

Each structure is given as a SMILES string.

The target in this assay is T1, human LPAR1 (Homo sapiens, UniProt Q92633).
T1 construct: host or cells: CHO-K1
T1 sequence (Q92633 whole entry): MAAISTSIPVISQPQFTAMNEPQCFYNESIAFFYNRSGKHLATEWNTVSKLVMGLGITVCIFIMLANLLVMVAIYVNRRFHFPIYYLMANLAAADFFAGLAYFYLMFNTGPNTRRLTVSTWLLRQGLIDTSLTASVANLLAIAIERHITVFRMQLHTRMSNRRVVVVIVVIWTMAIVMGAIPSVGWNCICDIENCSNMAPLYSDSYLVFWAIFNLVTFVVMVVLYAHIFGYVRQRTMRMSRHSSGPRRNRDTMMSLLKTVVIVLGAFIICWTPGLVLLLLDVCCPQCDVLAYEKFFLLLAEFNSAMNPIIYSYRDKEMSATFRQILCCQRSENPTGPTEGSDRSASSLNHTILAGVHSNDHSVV
Description: LPAR1 intracellular calcium mobilization assay (antagonist mode). It counts as cell-based. The settings on record: CHO-K1 EDG2 cells expressing human LPAR1; 60 min pre-incubation with compound (0.5 nM to 10 μM), then LPA 18:2 challenge; FLIPR Tetra calcium signal. On the procedure: In vitro LPAR1 activity was measured in an intracellular calcium mobilization assay.
CHO-K1 EDG2 cells (DiscoverX cat #93-0644C2) expressing human LPAR1 (NM_001401.3) were seeded in a total volume of 25 μL of Dulbecco's Modification of Eagle's Medium (DMEM) with 10% Fetal Bovine Serum, 1× PenStrepGlutamine, 300 μg/ml Hygromycin, and 800 μg/ml G418 into 384-well tissue culture plate (Grenier #781091) at 15,000 cells/well and incubated at 37° C. overnight. Prior to testing, 25 μL Calcium Loading Dye Component A (FLIPR Calcium 6 Assay Kit Molecular Device #R8190) and 2.5 mM Probenecid (Invitrogen #P36400, prepared fresh) in Hank's Balanced Salt Solution (Corning #21-023-CV), 20 mM HEPES (Corning #25-060-CI), 0.1% Bovine Serum Albumin (Sigma-Aldrich #A7906-500G) was add to the cells for 60 minutes at 37° C.
Agonist dose curves of LPA 18:2 (Avanti Polar Lipids cat #857138, 0.5 nM to 10 μM) were recorded to determine the LPA 18:2 EC80 for subsequent antagonist assays. For agonist dose curves, cells were removed from the incubator 2 hours after dye loading and transferred to the FLIPR Tetra instrument (Molecular Devices, San Jose, CA). Calcium mobilization was monitored for 5 min and 10 μL 6×LPA in HBSS/20 mM Hepes/0.1% bovine serum albumin (BSA) was added to the cells 5 seconds into the assay.
To determine the LPAR1 antagonist activity of test compounds, cells were pre-incubated with test compound at a dose range of 0.5 nM to 10 μM, followed by LPA at […] concentration (100 nM). After dye loading, cells were removed from the incubator and 0.3 μL of 200× antagonist was added. Cells were incubated for 60 minutes at 37° C. Antagonist activity was measured on a FLIPR Tetra. Calcium mobilization was monitored for 3.5 minutes and 10 μL 6×EC80 LPA in HBSS, 20 mM HEPES, and 0.1% BSA was added to the cells 5 seconds into the assay. Signal amplitude (Maximum minus minimum) values were plotted against log10 of antagonist concentration using Dose Response Tool (Gilead Sciences Inc.) to determine EC50.
To assess the antagonistic potential of exemplified compounds EC50 values were determined for Compounds 1 to 55 in the LPAR1 calcium mobilization assay. The compound numbers correspond to the compound numbers in Examples 1 to 35. N/A=not available.
(In general: A change in cytosolic calcium serves as a functional read-out for many receptors and channels.)
Consider `C[C@@H](OC(=O)Nc1c(-c2ncc(NC(=O)[C@@H]3C[C@H]3C#N)cn2)cnn1C)c1cc(F)cnc1F` [Compound 39, (R)-1-(2,5-difluoropyridin-3-yl)ethyl (4-(5-((1R,2R)-2-cyanocyclopropane-1-carboxamido)pyrimidin-2-yl)-1-methyl-1H-pyrazol-5-yl)carbamate], for which the EC50 stood at 66.7 nM.
The value for `C[C@@H](OC(=O)Nc1c(-c2ncc(O)cc2F)cnn1C)c1cccnc1Cl` [Compound 10, (R)-1-(2-chloropyridin-3-yl)ethyl (4-(3-fluoro-5-hydroxypyridin-2-yl)-1-methyl-1H-pyrazol-5-yl)carbamate] was 56.8 nM; that for `C[C@@H](OC(=O)Nc1c(-c2ccc(C(=O)NC34CC(C#N)(C3)C4)cn2)cnn1C)c1cccc(F)c1` [Compound 49] was 1860 nM; that for `C[C@@H](OC(=O)Nc1c(-c2ncc(NC(=O)C3(C(F)F)CC(F)(F)C3)cn2)cnn1C)c1cc(F)cnc1F` [Compound 37, (R)-1-(2,5-difluoropyridin-3-yl)ethyl (4-(5-(1-(difluoromethyl)-3,3-difluorocyclobutane-1-carboxamido)pyrimidin-2-yl)-1-methyl-1H-pyrazol-5-yl)carbamate] was 7.9 nM.
For `C[C@@H](OC(=O)Nc1c(-c2ncc(OS(=O)(=O)C3CC3)cn2)cnn1C)c1cccnc1F` [Compound 7, (R)-2-(5-(((1-(2-fluoropyridin-3-yl)ethoxy)carbonyl)amino)-1-methyl-1H-pyrazol-4-yl)pyrimidin-5-yl cyclopropanesulfonate] the value was 1410 nM.
Regarding `C[C@@H](OC(=O)Nc1c(-c2ncc(C(=O)NC34CC(F)(C3)C4)cn2)cnn1C)c1cc(F)cnc1F` [Compound 47, (R)-1-(2,5-difluoropyridin-3-yl)ethyl (4-(5-((3-fluorobicyclo[1.1.1]pentan-1-yl)carbamoyl)pyrimidin-2-yl)-1-methyl-1H-pyrazol-5-yl)carbamate], the EC50 stood at 799 nM.
`C[C@@H](OC(=O)Nc1c(-c2ncc(NC(=O)[C@@H]3C[C@H]3c3cccnc3)cn2)cnn1C)c1cc(F)cnc1F` [Compound 33, (R)-1-(2,5-difluoropyridin-3-yl)ethyl (1-methyl-4-(5-((1R,2R)-2-(pyridin-3-yl)cyclopropane-1-carboxamido)pyrimidin-2-yl)-1H-pyrazol-5-yl)carbamate]: the EC50 was 20.3 nM.
